# Columns and labels:
# Assay in all cases: 33PanQinase kinome-wide selectivity profile (Reaction Biology)
# Assay type in all cases: biochemical
# 350 wild-type kinases [1] = biological target: T1, 350 wild-type kinases (Homo sapiens, UniProt P48730); details: kinase CK1delta, ATP 0,3 µM, singlicate
# T1 construct: purchased Reaction Biology (assay service)
# Method: (§1) Compound RN341 was tested at two concentrations of 1 and 10 μM against a panel of 350 wild-type kinases in the ^33PanQinase assay. The assay was performed by Reaction Biology (www.reactionbiology.com/services/kinase-assays/kinase-panel-screening/).
# 350 wild-type kinases [2] = biological target: T2, 350 wild-type kinases (Homo sapiens, UniProt O00311); details: kinase CDC7/DBF4, ATP 0,1 µM, singlicate
# T2 construct: purchased Reaction Biology (assay service)
# Method: as §1
# 350 wild-type kinases [3] = biological target: T3, 350 wild-type kinases (Homo sapiens, UniProt Q13555); details: kinase CAMK2G, ATP 1 µM, singlicate
# T3 construct: purchased Reaction Biology (assay service)
# Method: as §1
# 350 wild-type kinases [4] = biological target: T4, 350 wild-type kinases (Homo sapiens, UniProt P78368); details: kinase CK1gamma2, ATP 0,1 µM, singlicate
# T4 construct: purchased Reaction Biology (assay service)
# Method: as §1
# 350 wild-type kinases [5] = biological target: T5, 350 wild-type kinases (Homo sapiens, UniProt P49674); details: kinase CK1epsilon, ATP 0,3 µM, singlicate
# T5 construct: purchased Reaction Biology (assay service)
# Method: as §1
# 350 wild-type kinases [6] = biological target: T6, 350 wild-type kinases (Homo sapiens, UniProt Q96RR4); details: kinase CAMKK2, ATP 3 µM, singlicate
# T6 construct: purchased Reaction Biology (assay service)
# Method: as §1
# 350 wild-type kinases [7] = biological target: T7, 350 wild-type kinases (Homo sapiens, UniProt P19784); details: kinase CK2alpha2, ATP 0,1 µM, singlicate
# T7 construct: purchased Reaction Biology (assay service)
# Method: as §1
# 350 wild-type kinases [8] = biological target: T8, 350 wild-type kinases (Homo sapiens, UniProt Q13554); details: kinase CAMK2B, ATP 3 µM, singlicate
# T8 construct: purchased Reaction Biology (assay service)
# Method: as §1
# 350 wild-type kinases [9] = biological target: T9, 350 wild-type kinases (Homo sapiens, UniProt P41240); details: kinase CSK, ATP 1 µM, singlicate
# T9 construct: purchased Reaction Biology (assay service)
# Method: as §1
# 350 wild-type kinases [10] = biological target: T10, 350 wild-type kinases (Homo sapiens, UniProt Q00535); details: singlicate; for Residual activity (% of control), CDK5/p25NCK: kinase CDK5/p25NCK, ATP 0,3 µM; for Residual activity (% of control), CDK5/p35NCK: kinase CDK5/p35NCK, ATP 0,1 µM
# T10 construct: purchased Reaction Biology (assay service)
# Method: as §1
# 350 wild-type kinases [11] = biological target: T11, 350 wild-type kinases (Homo sapiens, UniProt P10398, Y301D/Y302D); details: kinase ARAF YDYD (constitutively active variant), ATP 1 µM, singlicate
# T11 construct: purchased Reaction Biology (assay service)
# Method: as §1
# 350 wild-type kinases [12] = biological target: T12, 350 wild-type kinases (Homo sapiens, UniProt O14578); details: kinase CIT 1-450, ATP 0,1 µM, singlicate
# T12 construct: purchased Reaction Biology (assay service)
# Method: as §1
# 350 wild-type kinases [13] = biological target: T13, 350 wild-type kinases (Homo sapiens, UniProt Q16566); details: kinase CAMK4, ATP 1 µM, singlicate
# T13 construct: purchased Reaction Biology (assay service)
# Method: as §1
# 350 wild-type kinases [14] = biological target: T14, 350 wild-type kinases (Homo sapiens, UniProt P68400); details: kinase CK2alpha1, ATP 0,1 µM, singlicate
# T14 construct: purchased Reaction Biology (assay service)
# Method: as §1
# 350 wild-type kinases [15] = biological target: T15, 350 wild-type kinases (Homo sapiens, UniProt Q9UQM7); details: kinase CAMK2A, ATP 3 µM, singlicate
# T15 construct: purchased Reaction Biology (assay service)
# Method: as §1
# 350 wild-type kinases [16] = biological target: T16, 350 wild-type kinases (Homo sapiens, UniProt P07333); details: kinase CSF1R, ATP 0,3 µM, singlicate
# T16 construct: purchased Reaction Biology (assay service)
# Method: as §1
# 350 wild-type kinases [17] = biological target: T17, 350 wild-type kinases (Homo sapiens, UniProt Q07912); details: kinase ACK1, ATP 1 µM, singlicate
# T17 construct: purchased Reaction Biology (assay service)
# Method: as §1
# 350 wild-type kinases [18] = biological target: T18, 350 wild-type kinases (Homo sapiens, UniProt O60566); details: kinase BUB1B, ATP 0,3 µM, singlicate
# T18 construct: purchased Reaction Biology (assay service)
# Method: as §1
# 350 wild-type kinases [19] = biological target: T19, 350 wild-type kinases (Homo sapiens, UniProt Q9UM73); details: kinase ALK, ATP 0,3 µM, singlicate
# T19 construct: purchased Reaction Biology (assay service)
# Method: as §1
# 350 wild-type kinases [20] = biological target: T20, 350 wild-type kinases (Homo sapiens, UniProt P11802); details: singlicate; for Residual activity (% of control), CDK4/CycD1: kinase CDK4/CycD1; for Residual activity (% of control), CDK4/CycD1 / Residual activity (% of control), CDK4/CycD2: ATP 3 µM; for Residual activity (% of control), CDK4/CycD2: kinase CDK4/CycD2; for Residual activity (% of control), CDK4/CycD3: kinase CDK4/CycD3, ATP 10 µM
# T20 construct: purchased Reaction Biology (assay service)
# Method: as §1
# 350 wild-type kinases [21] = biological target: T21, 350 wild-type kinases (Homo sapiens, UniProt Q00536); details: kinase CDK16/CycY, ATP 0,3 µM, singlicate
# T21 construct: purchased Reaction Biology (assay service)
# Method: as §1
# 350 wild-type kinases [22] = biological target: T22, 350 wild-type kinases (Homo sapiens, UniProt P48729); details: kinase CK1alpha1, ATP 0,3 µM, singlicate
# T22 construct: purchased Reaction Biology (assay service)
# Method: as §1
# 350 wild-type kinases [23] = biological target: T23, 350 wild-type kinases (Homo sapiens, UniProt Q06187); details: kinase BTK, ATP 3 µM, singlicate
# T23 construct: purchased Reaction Biology (assay service)
# Method: as §1
# T10 sequence (Q00535 whole entry): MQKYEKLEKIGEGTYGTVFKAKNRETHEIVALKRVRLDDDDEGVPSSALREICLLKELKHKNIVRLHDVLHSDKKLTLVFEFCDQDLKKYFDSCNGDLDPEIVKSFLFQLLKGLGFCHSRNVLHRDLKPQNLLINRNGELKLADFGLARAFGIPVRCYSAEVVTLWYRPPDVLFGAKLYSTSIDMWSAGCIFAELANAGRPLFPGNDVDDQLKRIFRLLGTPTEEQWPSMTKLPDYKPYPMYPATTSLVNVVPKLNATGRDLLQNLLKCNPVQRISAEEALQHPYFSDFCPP
# T20 sequence (P11802 whole entry): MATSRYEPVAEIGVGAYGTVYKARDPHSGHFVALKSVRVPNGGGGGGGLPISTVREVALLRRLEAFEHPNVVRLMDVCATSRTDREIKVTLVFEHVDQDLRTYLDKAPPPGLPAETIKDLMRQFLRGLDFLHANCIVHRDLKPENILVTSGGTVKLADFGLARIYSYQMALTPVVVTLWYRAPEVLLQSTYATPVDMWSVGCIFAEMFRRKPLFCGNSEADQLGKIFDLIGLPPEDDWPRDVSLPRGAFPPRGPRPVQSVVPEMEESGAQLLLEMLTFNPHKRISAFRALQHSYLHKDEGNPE
# T2 sequence (O00311 whole entry): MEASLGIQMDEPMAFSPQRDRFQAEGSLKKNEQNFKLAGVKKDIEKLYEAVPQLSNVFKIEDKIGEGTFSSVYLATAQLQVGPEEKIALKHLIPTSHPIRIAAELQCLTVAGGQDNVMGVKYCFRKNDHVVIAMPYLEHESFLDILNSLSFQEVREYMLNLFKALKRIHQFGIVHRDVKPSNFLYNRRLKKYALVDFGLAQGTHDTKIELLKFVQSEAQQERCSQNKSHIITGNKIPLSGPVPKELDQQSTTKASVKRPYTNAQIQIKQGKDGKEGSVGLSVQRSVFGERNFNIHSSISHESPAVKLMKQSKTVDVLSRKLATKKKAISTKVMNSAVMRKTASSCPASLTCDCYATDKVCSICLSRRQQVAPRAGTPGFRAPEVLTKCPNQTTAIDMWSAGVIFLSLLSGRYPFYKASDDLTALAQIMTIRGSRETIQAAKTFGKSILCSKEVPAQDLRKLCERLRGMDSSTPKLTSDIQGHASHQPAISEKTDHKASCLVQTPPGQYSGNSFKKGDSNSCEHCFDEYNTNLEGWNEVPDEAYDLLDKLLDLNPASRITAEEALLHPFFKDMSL
# T13 sequence (Q16566 whole entry): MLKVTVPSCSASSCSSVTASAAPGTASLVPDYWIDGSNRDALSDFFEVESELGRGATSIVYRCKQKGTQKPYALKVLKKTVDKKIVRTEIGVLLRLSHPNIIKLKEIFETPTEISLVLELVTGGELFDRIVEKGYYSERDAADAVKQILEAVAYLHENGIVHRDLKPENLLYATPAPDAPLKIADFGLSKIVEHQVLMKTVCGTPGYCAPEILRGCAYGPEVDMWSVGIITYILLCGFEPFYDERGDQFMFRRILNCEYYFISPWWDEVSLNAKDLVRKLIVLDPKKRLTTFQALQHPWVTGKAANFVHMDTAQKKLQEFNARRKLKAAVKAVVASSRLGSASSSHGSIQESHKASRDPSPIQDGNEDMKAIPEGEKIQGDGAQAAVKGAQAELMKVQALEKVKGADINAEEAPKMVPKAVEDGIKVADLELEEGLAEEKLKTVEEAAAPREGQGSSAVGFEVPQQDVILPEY
# T1 sequence (P48730 whole entry): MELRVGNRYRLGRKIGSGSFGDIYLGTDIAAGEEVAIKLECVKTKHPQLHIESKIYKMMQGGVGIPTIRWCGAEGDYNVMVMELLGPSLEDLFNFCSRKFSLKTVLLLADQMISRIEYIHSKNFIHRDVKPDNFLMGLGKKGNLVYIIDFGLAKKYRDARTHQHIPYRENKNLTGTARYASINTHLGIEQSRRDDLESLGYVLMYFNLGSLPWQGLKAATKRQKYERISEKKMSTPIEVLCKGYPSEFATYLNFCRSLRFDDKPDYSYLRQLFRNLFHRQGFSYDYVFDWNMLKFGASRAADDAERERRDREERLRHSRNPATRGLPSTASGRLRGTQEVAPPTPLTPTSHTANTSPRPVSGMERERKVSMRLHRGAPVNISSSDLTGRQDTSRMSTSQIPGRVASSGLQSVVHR
# T16 sequence (P07333 20-972): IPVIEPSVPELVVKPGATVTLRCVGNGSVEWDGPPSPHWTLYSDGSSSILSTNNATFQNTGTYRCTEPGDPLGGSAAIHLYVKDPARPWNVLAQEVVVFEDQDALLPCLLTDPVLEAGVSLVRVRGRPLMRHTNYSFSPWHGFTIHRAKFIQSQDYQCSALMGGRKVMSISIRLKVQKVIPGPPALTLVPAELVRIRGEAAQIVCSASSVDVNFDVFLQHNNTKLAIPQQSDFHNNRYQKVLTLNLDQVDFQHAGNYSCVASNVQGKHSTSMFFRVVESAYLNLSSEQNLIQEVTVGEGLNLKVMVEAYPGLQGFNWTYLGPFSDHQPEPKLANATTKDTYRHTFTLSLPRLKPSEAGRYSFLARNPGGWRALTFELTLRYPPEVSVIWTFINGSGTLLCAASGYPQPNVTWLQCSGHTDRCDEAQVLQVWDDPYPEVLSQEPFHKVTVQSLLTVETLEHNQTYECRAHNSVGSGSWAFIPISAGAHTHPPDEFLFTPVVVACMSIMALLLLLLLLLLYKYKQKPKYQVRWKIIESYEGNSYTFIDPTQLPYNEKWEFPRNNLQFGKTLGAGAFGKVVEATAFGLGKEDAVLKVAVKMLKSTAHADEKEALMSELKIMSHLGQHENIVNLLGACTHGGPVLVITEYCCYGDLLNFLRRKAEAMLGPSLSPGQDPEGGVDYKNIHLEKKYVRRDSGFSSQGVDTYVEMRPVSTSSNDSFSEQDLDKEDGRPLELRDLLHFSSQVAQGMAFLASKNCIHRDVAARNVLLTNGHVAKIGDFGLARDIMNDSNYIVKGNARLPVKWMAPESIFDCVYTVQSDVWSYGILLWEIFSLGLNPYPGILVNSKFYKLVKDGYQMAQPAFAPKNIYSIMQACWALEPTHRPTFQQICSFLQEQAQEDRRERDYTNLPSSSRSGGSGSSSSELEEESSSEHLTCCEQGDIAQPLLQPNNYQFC
# T21 sequence (Q00536 whole entry): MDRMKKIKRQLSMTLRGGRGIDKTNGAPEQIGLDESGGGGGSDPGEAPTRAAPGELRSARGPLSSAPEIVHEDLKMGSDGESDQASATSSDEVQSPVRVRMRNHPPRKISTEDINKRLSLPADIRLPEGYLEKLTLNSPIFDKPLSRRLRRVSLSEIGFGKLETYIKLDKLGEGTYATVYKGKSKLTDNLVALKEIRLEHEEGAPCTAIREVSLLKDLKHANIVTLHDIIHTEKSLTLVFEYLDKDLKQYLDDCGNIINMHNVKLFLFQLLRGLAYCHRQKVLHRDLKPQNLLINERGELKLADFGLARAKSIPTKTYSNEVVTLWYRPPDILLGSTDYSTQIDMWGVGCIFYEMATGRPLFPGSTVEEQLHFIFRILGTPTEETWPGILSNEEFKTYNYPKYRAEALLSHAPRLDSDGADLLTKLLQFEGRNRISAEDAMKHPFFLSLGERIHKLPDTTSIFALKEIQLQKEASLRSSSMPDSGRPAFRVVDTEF
# T6 sequence (Q96RR4 whole entry): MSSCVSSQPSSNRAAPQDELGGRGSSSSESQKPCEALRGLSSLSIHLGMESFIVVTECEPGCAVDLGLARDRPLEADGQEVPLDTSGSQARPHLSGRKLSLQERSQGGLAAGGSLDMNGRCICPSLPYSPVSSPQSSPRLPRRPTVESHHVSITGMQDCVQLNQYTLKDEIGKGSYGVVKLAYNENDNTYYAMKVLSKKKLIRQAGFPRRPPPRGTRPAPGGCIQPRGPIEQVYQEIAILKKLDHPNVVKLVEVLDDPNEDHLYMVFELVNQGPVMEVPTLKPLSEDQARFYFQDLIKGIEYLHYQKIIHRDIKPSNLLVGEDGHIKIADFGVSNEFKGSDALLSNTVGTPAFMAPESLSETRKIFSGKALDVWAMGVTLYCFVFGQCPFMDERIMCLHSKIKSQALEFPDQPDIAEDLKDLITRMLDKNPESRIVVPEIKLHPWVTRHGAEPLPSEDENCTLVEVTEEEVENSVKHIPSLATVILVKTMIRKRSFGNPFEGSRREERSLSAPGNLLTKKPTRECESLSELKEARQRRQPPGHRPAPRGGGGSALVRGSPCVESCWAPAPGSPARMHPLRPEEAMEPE
# T8 sequence (Q13554 whole entry): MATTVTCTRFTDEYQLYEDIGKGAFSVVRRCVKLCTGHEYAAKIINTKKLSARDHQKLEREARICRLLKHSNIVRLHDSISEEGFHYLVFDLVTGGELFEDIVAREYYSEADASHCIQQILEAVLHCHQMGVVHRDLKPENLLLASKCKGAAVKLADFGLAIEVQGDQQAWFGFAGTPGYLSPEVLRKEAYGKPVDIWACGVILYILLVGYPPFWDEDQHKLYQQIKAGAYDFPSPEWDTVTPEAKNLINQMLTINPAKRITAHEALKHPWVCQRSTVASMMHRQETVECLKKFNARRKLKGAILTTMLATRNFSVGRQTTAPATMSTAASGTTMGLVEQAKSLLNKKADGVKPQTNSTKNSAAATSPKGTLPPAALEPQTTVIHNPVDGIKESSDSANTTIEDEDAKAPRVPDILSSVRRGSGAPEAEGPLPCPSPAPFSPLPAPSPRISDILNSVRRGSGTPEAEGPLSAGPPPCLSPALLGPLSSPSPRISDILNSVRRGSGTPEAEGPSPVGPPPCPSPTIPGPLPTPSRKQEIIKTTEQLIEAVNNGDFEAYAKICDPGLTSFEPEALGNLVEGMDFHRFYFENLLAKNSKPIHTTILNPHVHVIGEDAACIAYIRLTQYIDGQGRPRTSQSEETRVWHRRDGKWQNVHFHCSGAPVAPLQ
structure (smiles),measurement,setting,value
CCSc1nc(NC)c2c(-c3cccc(NC(=O)Nc4cc(C(C)(C)C)nn4-c4ccc(C)cc4)c3)c[nH]c2n1 [Compound 32],"Residual activity (% of control), CK1delta",350 wild-type kinases [1]; Assay Conc. 1.0E-05 M,85 % of control
same,"Residual activity (% of control), CK1delta",350 wild-type kinases [1]; Assay Conc. 1.0E-06 M,98 % of control
same,"Residual activity (% of control), CDC7/DBF4",350 wild-type kinases [2]; Assay Conc. 1.0E-05 M,50 % of control
same,"Residual activity (% of control), CDC7/DBF4",350 wild-type kinases [2]; Assay Conc. 1.0E-06 M,89 % of control
same,"Residual activity (% of control), CAMK2G",350 wild-type kinases [3]; Assay Conc. 1.0E-05 M,122 % of control
same,"Residual activity (% of control), CAMK2G",350 wild-type kinases [3]; Assay Conc. 1.0E-06 M,106 % of control
same,"Residual activity (% of control), CK1gamma2",350 wild-type kinases [4]; Assay Conc. 1.0E-05 M,88 % of control
same,"Residual activity (% of control), CK1gamma2",350 wild-type kinases [4]; Assay Conc. 1.0E-06 M,102 % of control
same,"Residual activity (% of control), CK1epsilon",350 wild-type kinases [5]; Assay Conc. 1.0E-05 M,74 % of control
same,"Residual activity (% of control), CK1epsilon",350 wild-type kinases [5]; Assay Conc. 1.0E-06 M,97 % of control
same,"Residual activity (% of control), CAMKK2",350 wild-type kinases [6]; Assay Conc. 1.0E-05 M,85 % of control
same,"Residual activity (% of control), CAMKK2",350 wild-type kinases [6]; Assay Conc. 1.0E-06 M,119 % of control
same,"Residual activity (% of control), CK2alpha2",350 wild-type kinases [7]; Assay Conc. 1.0E-05 M,92 % of control
same,"Residual activity (% of control), CK2alpha2",350 wild-type kinases [7]; Assay Conc. 1.0E-06 M,101 % of control
same,"Residual activity (% of control), CAMK2B",350 wild-type kinases [8]; Assay Conc. 1.0E-05 M,83 % of control
same,"Residual activity (% of control), CAMK2B",350 wild-type kinases [8]; Assay Conc. 1.0E-06 M,116 % of control
same,"Residual activity (% of control), CSK",350 wild-type kinases [9]; Assay Conc. 1.0E-05 M,69 % of control
same,"Residual activity (% of control), CSK",350 wild-type kinases [9]; Assay Conc. 1.0E-06 M,97 % of control
same,"Residual activity (% of control), CDK5/p25NCK",350 wild-type kinases [10]; Assay Conc. 1.0E-05 M,66 % of control
same,"Residual activity (% of control), CDK5/p25NCK",350 wild-type kinases [10]; Assay Conc. 1.0E-06 M,95 % of control
same,"Residual activity (% of control), CDK5/p35NCK",350 wild-type kinases [10]; Assay Conc. 1.0E-05 M,76 % of control
same,"Residual activity (% of control), CDK5/p35NCK",350 wild-type kinases [10]; Assay Conc. 1.0E-06 M,94 % of control
same,"Residual activity (% of control), ARAF YDYD",350 wild-type kinases [11]; Assay Conc. 1.0E-05 M,89 % of control
same,"Residual activity (% of control), ARAF YDYD",350 wild-type kinases [11]; Assay Conc. 1.0E-06 M,116 % of control
same,"Residual activity (% of control), CIT 1-450",350 wild-type kinases [12]; Assay Conc. 1.0E-05 M,71 % of control
same,"Residual activity (% of control), CIT 1-450",350 wild-type kinases [12]; Assay Conc. 1.0E-06 M,100 % of control
same,"Residual activity (% of control), CAMK4",350 wild-type kinases [13]; Assay Conc. 1.0E-05 M,100 % of control
same,"Residual activity (% of control), CAMK4",350 wild-type kinases [13]; Assay Conc. 1.0E-06 M,113 % of control
same,"Residual activity (% of control), CK2alpha1",350 wild-type kinases [14]; Assay Conc. 1.0E-05 M,82 % of control
same,"Residual activity (% of control), CK2alpha1",350 wild-type kinases [14]; Assay Conc. 1.0E-06 M,102 % of control
same,"Residual activity (% of control), CAMK2A",350 wild-type kinases [15]; Assay Conc. 1.0E-05 M,63 % of control
same,"Residual activity (% of control), CAMK2A",350 wild-type kinases [15]; Assay Conc. 1.0E-06 M,94 % of control
same,"Residual activity (% of control), CSF1R",350 wild-type kinases [16]; Assay Conc. 1.0E-05 M,71 % of control
same,"Residual activity (% of control), CSF1R",350 wild-type kinases [16]; Assay Conc. 1.0E-06 M,100 % of control
same,"Residual activity (% of control), ACK1",350 wild-type kinases [17]; Assay Conc. 1.0E-05 M,74 % of control
same,"Residual activity (% of control), ACK1",350 wild-type kinases [17]; Assay Conc. 1.0E-06 M,90 % of control
same,"Residual activity (% of control), BUB1B",350 wild-type kinases [18]; Assay Conc. 1.0E-05 M,85 % of control
same,"Residual activity (% of control), BUB1B",350 wild-type kinases [18]; Assay Conc. 1.0E-06 M,119 % of control
same,"Residual activity (% of control), ALK",350 wild-type kinases [19]; Assay Conc. 1.0E-05 M,23 % of control
same,"Residual activity (% of control), ALK",350 wild-type kinases [19]; Assay Conc. 1.0E-06 M,64 % of control
same,"Residual activity (% of control), CDK4/CycD1",350 wild-type kinases [20]; Assay Conc. 1.0E-05 M,57 % of control
same,"Residual activity (% of control), CDK4/CycD1",350 wild-type kinases [20]; Assay Conc. 1.0E-06 M,87 % of control
same,"Residual activity (% of control), CDK4/CycD2",350 wild-type kinases [20]; Assay Conc. 1.0E-05 M,49 % of control
same,"Residual activity (% of control), CDK4/CycD2",350 wild-type kinases [20]; Assay Conc. 1.0E-06 M,111 % of control
same,"Residual activity (% of control), CDK4/CycD3",350 wild-type kinases [20]; Assay Conc. 1.0E-05 M,87 % of control
same,"Residual activity (% of control), CDK4/CycD3",350 wild-type kinases [20]; Assay Conc. 1.0E-06 M,102 % of control
same,"Residual activity (% of control), CDK16/CycY",350 wild-type kinases [21]; Assay Conc. 1.0E-05 M,88 % of control
same,"Residual activity (% of control), CDK16/CycY",350 wild-type kinases [21]; Assay Conc. 1.0E-06 M,113 % of control
same,"Residual activity (% of control), CK1alpha1",350 wild-type kinases [22]; Assay Conc. 1.0E-05 M,98 % of control
same,"Residual activity (% of control), CK1alpha1",350 wild-type kinases [22]; Assay Conc. 1.0E-06 M,108 % of control
same,"Residual activity (% of control), BTK",350 wild-type kinases [23]; Assay Conc. 1.0E-05 M,37 % of control
same,"Residual activity (% of control), BTK",350 wild-type kinases [23]; Assay Conc. 1.0E-06 M,80 % of control

# Source: PMC12136037, “Type II kinase inhibitors that target Parkinson’s disease–associated LRRK2” (Science Advances, 2025)
